Measurements as given in publication PMC6821926, “Diaminoquinazoline MMV675968 from Pathogen Box inhibits Acinetobacter baumannii growth through targeting of dihydrofolate reductase” (Scientific Reports, 2019).

Legend:
Format in all cases: biochemical
human DHFR (hDHFR) = biological target: T1, human DHFR (hDHFR) (Homo sapiens, UniProt P00374); test: DHFR activity assay (A340) in lysate of E. coli BL21(DE3) overexpressing hDHFR
T1 construct: hDHFR (from pL0035) expressed from pET15b in E. coli BL21(DE3)
T1 sequence (P00374 1-187): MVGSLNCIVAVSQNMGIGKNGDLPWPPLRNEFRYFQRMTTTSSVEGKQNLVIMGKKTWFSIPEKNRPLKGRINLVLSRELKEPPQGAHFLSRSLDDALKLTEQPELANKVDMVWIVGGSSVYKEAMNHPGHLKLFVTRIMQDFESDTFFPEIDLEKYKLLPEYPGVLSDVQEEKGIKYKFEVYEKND

[1] = biological target: T2, A. baumannii dihydrofolate reductase (AbDHFR) (Acinetobacter baumannii, UniProt A0A098SJI9); test: DHFR activity assay (A340) in lysate of E. coli BL21(DE3) overexpressing AbDHFR; also E. coli surrogate growth and DHFR activity in treated A. baumannii
T2 construct: gene folA; AbDHFR expressed from pET15b in E. coli BL21(DE3)

[2] = biological target: T2, A. baumannii dihydrofolate reductase (AbDHFR); test: DHFR activity assay (A340) in lysate of E. coli BL21(DE3) overexpressing AbDHFR

T2 sequence (A0A098SJI9 entry or part of it): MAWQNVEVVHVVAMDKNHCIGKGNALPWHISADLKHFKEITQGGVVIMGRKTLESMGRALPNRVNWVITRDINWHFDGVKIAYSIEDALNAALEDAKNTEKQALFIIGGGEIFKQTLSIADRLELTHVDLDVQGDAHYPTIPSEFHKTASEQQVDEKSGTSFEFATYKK

Structure (SMILES) | IC50 (human DHFR (hDHFR)) | IC50 [1] | IC50 [2]
COc1ccc(OC)c(NCc2ccc3nc(N)nc(N)c3c2Cl)c1 [MMV675968] | 492 nM | 8.5 nM | 
CCc1nc(N)nc(N)c1-c1ccc(Cl)cc1 [PYR, pyrimethamine] |  |  | 81.7 nM
